Measurements published in ChEMBL document CHEMBL4342518, “First Contact: 7-Phenyl-2-Aminoquinolines, Potent and Selective Neuronal Nitric Oxide Synthase Inhibitors That Target an Isoform-Specific Aspartate” (J Med Chem, 2020).

Experiments:
in vitro [1] = settings: human, liver microsomes
Nitric oxide synthase 1 [2] = molecular target: Nitric oxide synthase 1 (Rattus norvegicus, UniProt P29476)
Nitric oxide synthase 3 = molecular target: T1, Nitric oxide synthase 3 (Homo sapiens, UniProt P29474)
T1 sequence (P29474 whole entry): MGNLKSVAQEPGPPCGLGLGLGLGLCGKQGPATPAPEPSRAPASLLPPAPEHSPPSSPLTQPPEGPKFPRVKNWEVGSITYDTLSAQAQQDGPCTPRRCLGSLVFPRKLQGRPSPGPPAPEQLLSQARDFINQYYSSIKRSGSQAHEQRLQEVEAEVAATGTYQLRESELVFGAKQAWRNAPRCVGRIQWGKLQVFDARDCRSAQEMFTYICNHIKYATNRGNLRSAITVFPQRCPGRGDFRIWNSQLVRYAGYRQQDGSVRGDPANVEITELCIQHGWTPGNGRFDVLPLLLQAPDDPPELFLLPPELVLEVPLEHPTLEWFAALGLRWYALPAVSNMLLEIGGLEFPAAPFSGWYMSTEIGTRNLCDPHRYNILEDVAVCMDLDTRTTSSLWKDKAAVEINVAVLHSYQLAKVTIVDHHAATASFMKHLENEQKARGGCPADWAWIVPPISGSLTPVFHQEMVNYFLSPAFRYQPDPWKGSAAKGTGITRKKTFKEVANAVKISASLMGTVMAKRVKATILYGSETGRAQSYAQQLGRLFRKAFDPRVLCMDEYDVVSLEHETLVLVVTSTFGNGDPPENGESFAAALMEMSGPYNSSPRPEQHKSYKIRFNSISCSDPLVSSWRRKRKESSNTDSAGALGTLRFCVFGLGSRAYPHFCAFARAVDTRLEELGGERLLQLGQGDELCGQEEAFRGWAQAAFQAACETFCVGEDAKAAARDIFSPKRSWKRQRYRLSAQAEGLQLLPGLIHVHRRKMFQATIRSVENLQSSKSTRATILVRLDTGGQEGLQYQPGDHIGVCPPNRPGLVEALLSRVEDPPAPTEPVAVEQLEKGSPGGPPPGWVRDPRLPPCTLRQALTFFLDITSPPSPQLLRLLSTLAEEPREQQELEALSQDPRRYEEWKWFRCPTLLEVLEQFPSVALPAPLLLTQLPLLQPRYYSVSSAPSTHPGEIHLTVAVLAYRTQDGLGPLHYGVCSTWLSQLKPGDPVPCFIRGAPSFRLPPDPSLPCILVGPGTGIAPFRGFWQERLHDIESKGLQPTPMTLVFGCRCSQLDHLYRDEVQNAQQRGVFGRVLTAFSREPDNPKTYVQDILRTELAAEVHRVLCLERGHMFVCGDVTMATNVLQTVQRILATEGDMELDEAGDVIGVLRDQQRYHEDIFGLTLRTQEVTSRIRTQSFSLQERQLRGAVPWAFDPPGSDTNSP

Nitric oxide synthase 1 [3] = molecular target: Nitric oxide synthase 1 (Rattus norvegicus, UniProt P29476, D597N)
Nitric oxide synthase 1 (Rattus norvegicus, UniProt P29476, D597N), sequence (P29476 whole entry D597N): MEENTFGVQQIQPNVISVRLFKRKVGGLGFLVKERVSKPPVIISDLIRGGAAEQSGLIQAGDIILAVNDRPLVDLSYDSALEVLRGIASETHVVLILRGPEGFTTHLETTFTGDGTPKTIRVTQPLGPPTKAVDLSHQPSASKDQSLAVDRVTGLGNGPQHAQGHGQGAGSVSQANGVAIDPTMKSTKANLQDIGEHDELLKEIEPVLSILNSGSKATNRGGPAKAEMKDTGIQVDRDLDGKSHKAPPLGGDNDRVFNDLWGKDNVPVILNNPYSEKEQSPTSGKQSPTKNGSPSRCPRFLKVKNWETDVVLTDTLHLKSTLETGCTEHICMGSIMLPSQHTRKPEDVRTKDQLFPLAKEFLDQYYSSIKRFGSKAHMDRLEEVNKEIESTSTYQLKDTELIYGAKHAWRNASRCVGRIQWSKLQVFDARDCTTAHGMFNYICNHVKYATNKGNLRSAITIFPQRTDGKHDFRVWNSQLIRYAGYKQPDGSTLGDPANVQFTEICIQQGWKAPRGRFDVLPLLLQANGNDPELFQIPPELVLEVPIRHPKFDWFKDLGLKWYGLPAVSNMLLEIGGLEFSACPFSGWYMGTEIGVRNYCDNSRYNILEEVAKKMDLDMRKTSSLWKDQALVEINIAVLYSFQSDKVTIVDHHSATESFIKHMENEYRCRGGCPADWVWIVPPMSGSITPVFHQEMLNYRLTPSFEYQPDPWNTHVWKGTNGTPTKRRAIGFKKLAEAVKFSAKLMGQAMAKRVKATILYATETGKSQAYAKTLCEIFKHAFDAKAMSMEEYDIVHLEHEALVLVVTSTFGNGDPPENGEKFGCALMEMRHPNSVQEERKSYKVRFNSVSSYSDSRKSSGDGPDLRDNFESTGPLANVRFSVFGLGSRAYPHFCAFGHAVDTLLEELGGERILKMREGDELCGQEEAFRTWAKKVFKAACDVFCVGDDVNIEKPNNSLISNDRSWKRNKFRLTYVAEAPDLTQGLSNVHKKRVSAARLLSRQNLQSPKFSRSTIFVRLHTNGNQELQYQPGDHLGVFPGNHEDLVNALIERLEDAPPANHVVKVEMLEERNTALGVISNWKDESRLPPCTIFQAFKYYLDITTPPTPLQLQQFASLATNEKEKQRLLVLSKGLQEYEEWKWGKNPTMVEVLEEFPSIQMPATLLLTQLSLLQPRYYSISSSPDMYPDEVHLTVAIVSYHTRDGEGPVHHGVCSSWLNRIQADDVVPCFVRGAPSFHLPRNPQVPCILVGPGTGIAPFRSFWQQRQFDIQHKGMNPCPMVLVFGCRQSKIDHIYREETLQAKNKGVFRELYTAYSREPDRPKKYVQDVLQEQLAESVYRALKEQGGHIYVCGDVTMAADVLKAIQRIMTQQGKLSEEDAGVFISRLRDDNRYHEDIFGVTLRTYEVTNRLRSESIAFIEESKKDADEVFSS

in vitro [4] = settings: human, liver microsomes; remark: listed apart in the source
[5] = molecular target: Nitric oxide synthase, inducible (Homo sapiens, UniProt P35228)
Nitric oxide synthase, inducible, sequence (P35228 whole entry): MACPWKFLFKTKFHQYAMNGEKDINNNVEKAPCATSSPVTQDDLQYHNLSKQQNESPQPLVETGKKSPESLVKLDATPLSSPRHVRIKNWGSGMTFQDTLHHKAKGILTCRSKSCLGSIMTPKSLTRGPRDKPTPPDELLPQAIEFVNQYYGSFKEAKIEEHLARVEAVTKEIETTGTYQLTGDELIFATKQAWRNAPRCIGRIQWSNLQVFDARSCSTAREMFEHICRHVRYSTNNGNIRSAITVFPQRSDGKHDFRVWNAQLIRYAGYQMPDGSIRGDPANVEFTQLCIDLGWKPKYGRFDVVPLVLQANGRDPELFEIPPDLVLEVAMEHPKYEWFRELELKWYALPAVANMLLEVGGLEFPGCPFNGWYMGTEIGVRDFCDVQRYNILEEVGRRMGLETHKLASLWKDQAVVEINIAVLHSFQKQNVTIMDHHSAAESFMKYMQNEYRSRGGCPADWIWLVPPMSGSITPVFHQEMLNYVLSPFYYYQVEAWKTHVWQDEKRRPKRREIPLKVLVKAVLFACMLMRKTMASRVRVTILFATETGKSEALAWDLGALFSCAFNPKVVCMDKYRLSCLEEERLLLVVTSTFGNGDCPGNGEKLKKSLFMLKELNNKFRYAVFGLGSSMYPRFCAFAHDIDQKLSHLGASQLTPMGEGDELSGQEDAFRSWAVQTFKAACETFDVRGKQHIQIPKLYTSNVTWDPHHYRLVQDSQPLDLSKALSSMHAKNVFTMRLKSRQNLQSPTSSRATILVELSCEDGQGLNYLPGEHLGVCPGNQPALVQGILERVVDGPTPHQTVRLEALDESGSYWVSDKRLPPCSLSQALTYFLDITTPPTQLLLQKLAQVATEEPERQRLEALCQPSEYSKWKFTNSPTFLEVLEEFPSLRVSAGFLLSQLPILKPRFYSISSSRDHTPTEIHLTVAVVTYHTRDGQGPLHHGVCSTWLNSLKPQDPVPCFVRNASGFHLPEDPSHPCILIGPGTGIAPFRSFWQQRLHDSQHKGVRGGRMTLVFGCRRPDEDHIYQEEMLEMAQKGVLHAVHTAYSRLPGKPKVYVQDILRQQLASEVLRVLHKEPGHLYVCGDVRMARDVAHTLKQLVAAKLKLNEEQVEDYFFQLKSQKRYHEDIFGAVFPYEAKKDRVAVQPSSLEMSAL

in vitro [6] = settings: human, liver microsomes; remark: listed apart in the source
in vitro [7] = settings: human, liver microsomes, pH 7.4
Nitric oxide synthase 1 [8] = molecular target: Nitric oxide synthase 1 (Homo sapiens, UniProt P29475)
Nitric oxide synthase 1 (Homo sapiens, UniProt P29475), sequence (P29475 whole entry): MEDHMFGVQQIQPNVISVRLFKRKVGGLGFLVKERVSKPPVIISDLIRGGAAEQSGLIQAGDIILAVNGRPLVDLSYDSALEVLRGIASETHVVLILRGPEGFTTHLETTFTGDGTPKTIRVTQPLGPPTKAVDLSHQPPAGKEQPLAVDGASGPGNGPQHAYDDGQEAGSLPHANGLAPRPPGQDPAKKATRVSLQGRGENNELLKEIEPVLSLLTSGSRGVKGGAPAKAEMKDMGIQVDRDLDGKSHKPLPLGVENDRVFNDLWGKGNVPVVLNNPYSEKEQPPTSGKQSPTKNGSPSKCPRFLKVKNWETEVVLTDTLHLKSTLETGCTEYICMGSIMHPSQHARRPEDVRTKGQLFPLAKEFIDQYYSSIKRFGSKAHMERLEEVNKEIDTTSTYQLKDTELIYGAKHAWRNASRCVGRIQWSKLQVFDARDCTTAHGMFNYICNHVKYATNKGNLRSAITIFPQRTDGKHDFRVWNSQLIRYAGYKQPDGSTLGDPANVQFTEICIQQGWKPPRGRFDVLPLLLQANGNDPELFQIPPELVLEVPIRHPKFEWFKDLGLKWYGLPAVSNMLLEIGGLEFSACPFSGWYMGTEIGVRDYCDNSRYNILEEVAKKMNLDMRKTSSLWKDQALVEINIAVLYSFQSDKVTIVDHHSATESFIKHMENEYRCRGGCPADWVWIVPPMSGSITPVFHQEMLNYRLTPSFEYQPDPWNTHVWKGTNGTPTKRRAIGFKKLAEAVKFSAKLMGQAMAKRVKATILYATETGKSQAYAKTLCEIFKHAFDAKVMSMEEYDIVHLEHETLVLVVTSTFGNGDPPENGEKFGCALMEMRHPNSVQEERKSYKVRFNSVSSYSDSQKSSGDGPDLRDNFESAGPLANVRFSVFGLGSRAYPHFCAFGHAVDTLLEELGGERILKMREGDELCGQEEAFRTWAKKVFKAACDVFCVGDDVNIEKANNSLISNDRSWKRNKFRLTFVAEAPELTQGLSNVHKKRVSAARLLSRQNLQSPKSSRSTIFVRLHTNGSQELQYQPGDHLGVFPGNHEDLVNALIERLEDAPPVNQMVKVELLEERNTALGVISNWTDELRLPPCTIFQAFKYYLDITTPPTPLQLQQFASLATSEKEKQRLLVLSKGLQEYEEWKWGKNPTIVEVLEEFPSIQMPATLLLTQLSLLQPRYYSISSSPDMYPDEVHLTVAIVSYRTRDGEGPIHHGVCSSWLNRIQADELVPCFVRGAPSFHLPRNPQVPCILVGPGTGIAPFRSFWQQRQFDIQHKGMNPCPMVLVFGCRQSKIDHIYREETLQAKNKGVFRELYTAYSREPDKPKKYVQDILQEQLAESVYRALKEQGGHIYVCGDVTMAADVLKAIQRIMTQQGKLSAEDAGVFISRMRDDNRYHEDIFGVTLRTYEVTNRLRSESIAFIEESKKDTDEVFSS

Nitric oxide synthase 1 (Rattus norvegicus, UniProt P29476), sequence (P29476 whole entry): as the sequence (P29476 whole entry D597N) above, with N597D counted along it

## Cc1cc(N)nc2cc(-c3cccc(CN)c3)ccc12.Cl.Cl
In vitro [1]
  half-life at 1 h, 1.426 µM: > 1 h
Nitric oxide synthase 1 [2]
  Ki: 55 nM
Nitric oxide synthase 3
  Ki: 52600 nM
Nitric oxide synthase 1 [3]
  Ki: 416 nM
In vitro [4]
  CLint scaled at 1 h, 1.426 µM: 8 mL/min/kg
[5]
  Ki: 29900 nM
In vitro [6]
  remaining at 1 h, 1.426 µM: 87%
In vitro [7]
  remaining at 1 h, 1.426 µM: 67%
Nitric oxide synthase 1 [8]
  Ki: 60 nM
